In patent US20250122225A1, “MASP-2 INHIBITORS AND METHODS OF USE” (Omeros Corporation, priority 2023, published 2025):
pKi: −log10 of the molar value. Structures can show the parent of a compound that is named as a salt.

Key:
MASP-2 (CCP1-CCP2-SP) = target: T1, MASP-2 (CCP1-CCP2-SP) (Homo sapiens, UniProt O00187); assay: Enzymatic assay for MASP-2 inhibitory activity (fluorogenic substrate); assay type: biochemical
T1 construct: 15 μL of Enzyme MASP-2 (CCP1-CCP2-SP) in Assay Buffer
Procedure: The MASP-2 assay utilizes a fluorogenic substrate, based on the cleavage site for its natural substrate C2. The assay was run at room temperature in an assay buffer containing 20 mM HEPES, pH 7.4, 140 mM NaCl and 0.1% Tween 20. Assay parameters were adjusted such that the assay was linear with respect to time, enzyme, and substrate concentrations. Under the optimized assays conditions, IC50 values were equivalent to Ki values, except in the few cases of “tight binding” inhibitors. Cases of “tight binding” or possible “slow binding” inhibitors were handled by the methods described in Copeland R. A. (2013) Evaluation of Enzyme Inhibitors in Drug Discovery. 2nd Ed., John Wiley and Sons, Inc., Chapters 5-7.
The MASP-2 assay protocol was carried out as follows. Test compounds were serially diluted in DMSO and then 100 nL of each dilution was transferred to the assay plate(s). 10 μL of Assay Buffer was added, followed by 15 μL of Enzyme MASP-2 (CCP1-CCP2-SP) in Assay Buffer. 15 μL of Substrate in Assay Buffer was then added and the mixture was mixed to start the reaction. After 20 min at room temperature, 15 μL of a stop solution (0.1 M acetic acid) was added, the sample was mixed, and the plates were read on a SpectraMax i3x Microplate Reader with the data exported as an Excel file. Each assay plate included a “no inhibitor” (DMSO only) control, a “no enzyme” control, and a reference inhibitor control. % Activity values=100*(average test comp. fluorescence−average “no enzyme” fluorescence)/(average “DMSO only” fluorescence−average “no enzyme” fluorescence). IC50 and Ki replicate values were very reproducible, with values well within ±2-fold.

human α-thrombin = target: T2, human α-thrombin (Homo sapiens, UniProt P00734); assay: Enzymatic assay for thrombin (fluorogenic peptide substrate Boc-VPR-AMC); assay type: biochemical
T2 construct: enzyme (human α-thrombin (BioPharm® Lab.)) in assay buffer; purchased BioPharm® Lab
Procedure: The thrombin assay utilizes a fluorogenic peptide substrate (Boc-VPR-AMC (R&D Systems) and was run at room temperature in an assay buffer containing 20 mM Hepes, pH 7.4, 140 mM NaCl and 0.1% Tween 20. Assay parameters were adjusted such that the assay was linear with respect to time, enzyme, and substrate concentrations. Under these optimized assays conditions, IC50 values were equivalent to Ki values, except in a few cases of “tight binding” inhibitors. Cases of “tight binding” or possible “slow binding” inhibitors were handled by the methods described in Copeland R. A. (2013) Evaluation of Enzyme Inhibitors in Drug Discovery. 2nd Ed. John Wiley and Sons, Inc., Chapters 5-7.
The thrombin assay protocol was carried out as follows. Test compounds were serially diluted in DMSO and then 100 nL of each dilution was transferred to the assay plate(s). 10 μL of Assay Buffer was added, followed by 15 μL of enzyme (human α-thrombin (BioPharm® Lab.)) in assay buffer. 15 μL of substrate in assay buffer was then added and the sample mixed to start the reaction. After 20 min at room temperature, 15 μL of a stop solution (0.1 M acetic acid) was added, the sample was mixed, and the plates were read on a SpectraMax® i3x Microplate Reader with the data exported as Excel files. Each assay plate included a “no inhibitor” (DMSO only) control, a “no enzyme” control, and a reference inhibitor control. % Activity values=100*(ave. test comp. fluorescence−ave. “no enz” fluorescence)/(ave. “DMSO only” fluorescence−ave. “no enz” fluorescence). IC50 and Ki values were very reproducible, with values falling well within ±2-fold.

T1 sequence (O00187 445-686 limits assumed): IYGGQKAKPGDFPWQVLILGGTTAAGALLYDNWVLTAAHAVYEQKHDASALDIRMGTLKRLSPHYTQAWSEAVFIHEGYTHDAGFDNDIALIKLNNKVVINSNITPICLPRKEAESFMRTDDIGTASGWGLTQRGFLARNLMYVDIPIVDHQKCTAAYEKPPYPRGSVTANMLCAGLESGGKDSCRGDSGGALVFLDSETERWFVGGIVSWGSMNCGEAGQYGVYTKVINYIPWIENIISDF
T1 sequence (O00187 287-444 partner limits assumed): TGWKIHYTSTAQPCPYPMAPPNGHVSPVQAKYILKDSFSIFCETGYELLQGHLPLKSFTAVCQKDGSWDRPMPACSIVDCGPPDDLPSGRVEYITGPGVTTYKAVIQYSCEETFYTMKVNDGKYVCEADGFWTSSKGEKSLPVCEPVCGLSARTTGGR

Structure (SMILES): Cc1cccc(CNc2ncc3n(c2=O)[C@H](C(=O)NCc2ccc(N)nc2C)CC3)c1C [Compound 60, (S)-N-((6-amino-2-methylpyridin-3-yl)methyl)-3-((2,3-dimethylbenzyl)amino)-4-oxo-4,6,7,8-tetrahydropyrrolo[1,2-a]pyrazine-6-carboxamide]
- pKi (MASP-2 (CCP1-CCP2-SP)): > 6.30
- pKi (human α-thrombin): > 6.30

Structure (SMILES): Cc1cc(F)cc(CNc2ncc3n(c2=O)[C@H](C(=O)NCc2cc(Cl)ccc2-n2cnnn2)CC3)c1 [Compound 179, (S)—N-(5-chloro-2-(1H-tetrazol-1-yl)benzyl)-3-((3-fluoro-5-methylbenzyl)amino)-4-oxo-4,6,7,8-tetrahydropyrrolo[1,2-a]pyrazine-6-carboxamide]
- pKi (MASP-2 (CCP1-CCP2-SP)): > 6.30
- pKi (human α-thrombin): > 6.30

Structure (SMILES): O=C(NCc1cc2cnccc2[nH]1)[C@@H]1CCc2c(Cl)nc(NC3CCC3)c(=O)n21 [Compound 100, (S)—N-((1H-pyrrolo[3,2-c]pyridin-2-yl)methyl)-1-chloro-3-(cyclobutylamino)-4-oxo-4,6,7,8-tetrahydropyrrolo[1,2-a]pyrazine-6-carboxamide trifluoroacetate]
- pKi (MASP-2 (CCP1-CCP2-SP)): > 6.30
- pKi (human α-thrombin): < 4.60

Structure (SMILES): Cc1cc(F)cc(CNc2nc(-c3cnn(C(F)F)c3)c3n(c2=O)[C@H](C(=O)NCc2ccc(N)nc2)CC3)c1 [Compound 216, (S)-N-((6-aminopyridin-3-yl)methyl)-1-(1-(difluoromethyl)-1H-pyrazol-4-yl)-3-((3-fluoro-5-methylbenzyl)amino)-4-oxo-4,6,7,8-tetrahydropyrrolo[1,2-a]pyrazine-6-carboxamide trifluoroacetate]
- pKi (MASP-2 (CCP1-CCP2-SP)): > 6.30
- pKi (human α-thrombin): < 4.60

Structure (SMILES): Cc1cc(F)cc(CNc2nc(-c3cnn(C(F)F)c3)c3n(c2=O)[C@H](C(=O)NCc2cc4c(s2)CNC4)CC3)c1 [Compound 219, (S)-1-(1-(difluoromethyl)-1H-pyrazol-4-yl)-N-((5,6-dihydro-4H-thieno[2,3-c]pyrrol-2-yl)methyl)-3-((3-fluoro-5-methylbenzyl)amino)-4-oxo-4,6,7,8-tetrahydropyrrolo[1,2-a]pyrazine-6-carboxamide trifluoroacetate]
- pKi (MASP-2 (CCP1-CCP2-SP)): > 6.30
- pKi (human α-thrombin): < 4.60

Structure (SMILES): CC[C@@H](Nc1ncc2n(c1=O)[C@H](C(=O)NCc1cc3c(s1)CNC3)CC2)c1cccc(-c2ccccc2)c1 [Compound 267, (S)-3-(((R)-1-([1,1'-biphenyl]-3-yl)propyl)amino)-N-((5,6-dihydro-4H-thieno[2,3-c]pyrrol-2-yl)methyl)-4-oxo-4,6,7,8-tetrahydropyrrolo[1,2-a]pyrazine-6-carboxamide trifluoroacetate]
- pKi (MASP-2 (CCP1-CCP2-SP)): > 6.30
- pKi (human α-thrombin): 5.60 to 6.30

Structure (SMILES): Cc1cccc(CNc2nc(Cl)c3n(c2=O)[C@H](C(=O)NCc2cc4cnccc4[nH]2)CC3)c1C [Compound 15, (S)-N-((1H-pyrrolo[3,2-c]pyridin-2-yl)methyl)-1-chloro-3-((2,3-dimethylbenzyl)amino)-4-oxo-4,6,7,8-tetrahydropyrrolo[1,2-a]pyrazine-6-carboxamide]
- pKi (MASP-2 (CCP1-CCP2-SP)): > 6.30
- pKi (human α-thrombin): 5.00 to 5.60

Structure (SMILES): CC(C)[C@@H](Nc1ncc2n(c1=O)[C@H](C(=O)NCc1cc3c(s1)CNC3)CC2)c1ccccc1 [Compound 255]
- pKi (MASP-2 (CCP1-CCP2-SP)): > 6.30
- pKi (human α-thrombin): > 6.30

Structure (SMILES): CCC[C@@H](Nc1ncc2n(c1=O)[C@H](C(=O)NCc1cc3c(s1)CNC3)CC2)c1ccccc1 [Compound 258]
- pKi (MASP-2 (CCP1-CCP2-SP)): > 6.30
- pKi (human α-thrombin): > 6.30

Structure (SMILES): Cc1ccc(F)cc1CNc1ncc2n(c1=O)[C@H](C(=O)N[C@H](C)c1ccc(N)nc1)CC2 [Compound 196, (S)-N-((R)-1-(6-aminopyridin-3-yl)ethyl)-3-((5-fluoro-2-methylbenzyl)amino)-4-oxo-4,6,7,8-tetrahydropyrrolo[1,2-a]pyrazine-6-carboxamide trifluoroacetate]
- pKi (MASP-2 (CCP1-CCP2-SP)): > 6.30
- pKi (human α-thrombin): 4.60 to 5.00

Structure (SMILES): COc1ccnc(CNC(=O)[C@@H]2CCc3cnc(NCc4cc(C)cc(F)c4)c(=O)n32)c1F [Compound 190, (S)-N-((3-fluoro-4-methoxypyridin-2-yl)methyl)-3-((3-fluoro-5-methylbenzyl)amino)-4-oxo-4,6,7,8-tetrahydropyrrolo[1,2-a]pyrazine-6-carboxamide trifluoroacetate]
- pKi (human α-thrombin): 5.00 to 5.60
